Laboratory results reported in US7754765B2, “Copper chelators for treating ocular inflammation” (Radical Vision Therapeutics Inc, priority 2000, dated 2010).

Assays:
[1] = system: retina; experiment: Retinal thickness (edema) after laser photocoagulation in rats; type: in vivo, Long-Evans rats; details: 0.5 mmol/kg/day intraperitoneally; for retinal thickness, greater than that in normal retina: saline control 50%; for retinal thickness (edema) compared with control (saline injected), in words: day 1 post photocoagulation
[2] = system: retina; experiment: Retinal thickness (edema) after PDT (verteporfin) in rabbits; type: in vivo, Pigmented rabbits; details: for retinal thickness, greater than that in normal retina: 24 hours after PDT, 0.2 mmol/kg/day intramuscularly, saline control 140%; for retinal thickness (edema) compared with control (saline injected), in words: day 1 post PDT, TRIEN or TETREN (0.2 mM/day)
[3] = system: ED-1 immunoreactive (macrophage) cells in retina; experiment: ED-1 (macrophage) immunostaining of retina after photocoagulation in rats; type: in vivo; details: vs saline injected; for number of ED-1 positive retina cells relative to controls (in words): 24 hours after laser treatment; for number of ED-1 positive cells, times less than control: Day 1 post photocoagulation, average of four 40× objective fields

Q: How did the “retinal thickness, greater than that in normal retina” value (from here on “retinal thickness … in normal retina”) ([1]; 24 hours post photocoagulation) turn out when `NCCNCCNCCN` [TRIEN, triethylenetetramine] was run?
A: 23%

Q: What about the “retinal thickness (edema) compared with control (saline injected), in words” value [1] of the same compound?
A: retinal thickness of eyes from control animals (saline injected) is greater

Q: And the “retinal thickness … in normal retina” value [2]?
A: 50%

Q: And the “retinal thickness (edema) compared with control (saline injected), in words” value [2]?
A: significantly less than that in control

Q: And the “number of ED-1 positive retina cells relative to controls (in words)” value [3]?
A: approximately half that of the controls

Q: And the “number of ED-1 positive cells, times less than control” value [3]?
A: two times less

Q: Which “retinal thickness, greater than that in the control animals (saline injected)” value ([1]; 24 hours post photocoagulation) does the source give for `CC(C)(S)[C@@H](N)C(=O)O` [D-PA, D-penicillamine] here?
A: 35%

Q: And the “retinal thickness … in normal retina” value ([1]; 24 hours post photocoagulation)?
A: 85%

Q: What about the “retinal thickness (edema) compared with control (saline injected), in words” value [1] of the same compound?
A: greater than that in control eyes

Q: And the “retinal thickness (edema) compared with control (saline injected), in words” value ([1]; listed as DPA)?
A: showed the opposite effect

Q: `NCCNCCNCCNCCN` [TETREN, tetraethylenepentamine] was tested. Which “retinal thickness … in normal retina” value ([1]; 24 hours post photocoagulation) did it give?
A: 26%

Q: And the “retinal thickness (edema) compared with control (saline injected), in words” value [1]?
A: retinal thickness of eyes from control animals (saline injected) is greater

Q: What about the “retinal thickness … in normal retina” value [2] of the same compound?
A: 45%

Q: What about the “retinal thickness (edema) compared with control (saline injected), in words” value [2] of the same compound?
A: significantly less than that in control

Q: And the “number of ED-1 positive retina cells relative to controls (in words)” value [3]?
A: more than half that of control animals

Q: And the “number of ED-1 positive cells, times less than control” value [3]?
A: 2.5 times
